The text below walks through data of patent US20250388597A1, “BIFUNCTIONAL PHOTOCROSSLINKING PROBES FOR COVALENT CAPTURE OF PROTEIN-NUCLEIC ACID COMPLEXES IN CELLS” (UNIVERSITY OF SOUTHERN CALIFORNIA, priority 2022, published 2025).

In experiment [1] the target is T1, MEF2A/DNA complex (Homo sapiens, UniProt Q02078).
T1 construct: human MEF2A DBD (residues 2-95); made in house
T1 sequence (Q02078 2-95): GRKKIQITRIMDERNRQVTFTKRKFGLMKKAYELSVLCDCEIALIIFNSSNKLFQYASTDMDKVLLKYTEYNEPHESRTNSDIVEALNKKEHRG
The experiment in a line: In vitro photo-crosslinking of assembled MEF2/DNA complex, read on denaturing SDS/urea gel or agarose gel. The format is biochemical. Particulars: for formation of covalent MEF2/DNA crosslinked complex: probe + UV, denaturing gel. The source says:
In vitro assays have confirmed the success and the efficiency of the demo probe (AMT-LC-SDA) in crosslinking double strand DNA of various contents and DNA-binding protein human myocyte enhancer factor 2A (MEF2A) (1-95 aa) (FIG. 5C-FIG. 5E). The solid crosslinking is confirmed for the probe with UV photo crosslinking conditions by denaturing or digestive approaches such as running with 8.3 M urea gel, SDS gel, combined with sample with overnight digestion of proteinase K at 65 Celsius and denatured at high temperature of 95 Celsius with SDS loading dye. […] Under these harsh evaluation conditions, the protein got digested on the crosslinking complex thoroughly, yet the remaining crosslinked amino acids residuals still have made the DNA to be in a larger size and shifted clearly compared to other controls, which is indicated by the bold shaped arrow. Agarose gel was also used for its bigger pore size to estimate the crosslinking efficiency (UV 2 hrs), estimated by the amount of the left free DNA, our probe has reached around 30-60% efficiency (FIG. 5E), which is much higher than the UV-initiated protein DNA crosslinking without the use of a probe (10-20%) as reported in Nature Communications, volume 11, Article number: 3019 (2020). […] This further supports the idea of applying this probe for replacement of formaldehyde, it crosslinks the protein only within the proximity of nucleic acids, thereby largely reducing the random protein-protein crosslinking noise and helps to preserve the native state of protein epitopes.
The BFPX probe 4AMT-LC-SDA was synthesized with good yield by the NHS-amine chemistry using psoralen and diazirine derivatives (FIG. 5A, FIG. 5B). To test its photo crosslinking ability, human transcription factor MEF2A (the MADS-box/MEF2 domain) and double strand DNA containing a MEF2 binding site were used. We first used electrophoresis mobility shift assay (EMSA) to validate the activity of the purified recombinant MEF2A DNA-binding domain. After finding out the optimal protein to DNA ratio, the in vitro assembled MEF2/DNA complex was then subject to photocrosslinking in the presence or absence of the 4AMT-LC-SDA probe with or without UV illumination. Multiple other control experiments were carried out in parallel to test the specificity of photocrosslinking between the DNA and MEF2. Specifically, parameters such as protein/DNA amounts (1:[…]), ratio, UV time (10 m to 4 hrs), wavelength (320 to 360 nm), LV source (mercury long lamp, LED) and their distance to the reaction mixture have been optimized along the course. The MEF2 Protein and DNA were incubated first to mimic an in vivo binding mode and stoichiometry, and then the mixture was incubated with our 4AMT-LC-SDA probe to undergo UV illumination. The results were evaluated by running denaturing gels (SDS in FIG. 5D, or Urea in FIG. 5C) against the high temperature denatured reaction mixtures and checking the respective protein (silver stain) or DNA (FAM label) signals. To further rule out any other possible false positiveness during loading, proteinase K digestion was applied to all the samples including the negative controls with SDS at 65 degrees.

Experiment [2] addresses T2, FOXP3 in HEK293T cells (Homo sapiens, UniProt Q9BZS1).
T2 construct: AVI tag (N); TEV site (N); expressed in transfected cells; host or cells: HEK293T
T2 sequence (Q9BZS1 1-431): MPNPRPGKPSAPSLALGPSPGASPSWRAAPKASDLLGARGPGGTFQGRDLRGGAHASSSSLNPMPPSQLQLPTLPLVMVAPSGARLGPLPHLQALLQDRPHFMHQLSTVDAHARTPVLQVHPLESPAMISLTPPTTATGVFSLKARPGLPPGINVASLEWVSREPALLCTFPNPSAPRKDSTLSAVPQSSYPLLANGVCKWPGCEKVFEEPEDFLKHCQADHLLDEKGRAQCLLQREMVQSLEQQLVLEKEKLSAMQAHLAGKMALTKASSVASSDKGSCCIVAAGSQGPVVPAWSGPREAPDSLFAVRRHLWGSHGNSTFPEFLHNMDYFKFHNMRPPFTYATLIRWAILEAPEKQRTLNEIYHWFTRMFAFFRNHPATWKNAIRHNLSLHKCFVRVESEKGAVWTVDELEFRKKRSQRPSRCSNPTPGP
The experiment can be described thus: Capture of FLAG-tagged FOXP3 complexes in transfected HEK293T cells, whole cell lysate western blot. The format is cell-based. The settings on record: for crosslinked FOXP3 complexes in probe and UV treated cells: SPB-AAD 10 or 100 μM, SPB-PEG4-AAD 100 μM, UV 2-5 min, vs controls lanes 1-3. As to the method: FIG. 14C depicts 10 cm plate HEK293T cells (˜8.8 million) were transfected with 2 μg AVI-TEV-FLAG-FOXP3 for about 48 hr. The cells were harvested into 1.6 ml room temperature 1×DPBS buffer (with no calcium and magnesium). The cells were aliquoted into 300 μl per sample and each sample was added SPB-AAD 10 μM (A10) or 100 μM (A100) or SPB-PEG4-AAD 100 μM (p100). The samples were incubated at 37° C. for 30 min in dark with rotation. The samples were transferred to the middle wells of a 24-well plate (Corning #3527). With 300 μl, the liquid is about 1.5 mm high in a 24-well plate well. The samples on the 24-well plate were then UV illuminated (LED Chip: 21.4 mm×21.4 mm, 365-370 nm, 30 Watt, sample distance (the bottom of the well plate to the lamp plane) is 4 cm, exposure time 2-5 min at 4 degree C.). The BFPX-treated cells were recovered from the 24-well plate and washed using 1×DPBS, centrifuged at 500 g for 5 min to pellet the cells and remove the DPBS buffer. 0.5 million of the BFPX-treated cells was added 20 μl 1×RIPA buffer, shake on ice for 15 min to lyse the cells. The lysis mixture was then added 3 μl 10× MNase, 0.25 μl RnaseA, 12.5 Unit Mnase, and ddw to 30 μl, incubated at 37° C. for 15 min. The lysis mixture was then added 6 μl SDS loading dye (2% SDS), boil 10 min at 95° C. Run at 200V for 40 minutes on 4%-15% SDS-PAGE gel and analyzed by western blot (Transfer at 18V (30 mA) overnight, block in 2% BSA in PBS for 45 min, Primary antibody: 1:2000 anti-FLAG; room temperature, 2 hr; Secondary antibody: anti mouse light chain kappa 1: 100,000; Femto Signal ECL).
Finally, we tested the capture of transcription factors bound to genomic DNA inside cells. HEK293T cells transfected with FLAG-tagged FOXP3 were treated with various combination of UV illumination and probe (SPB-AAD: A; and P: SPB-PEG4-AAD). The cells were lysed in 1×RIPA buffer followed by RNase and MNase treatment. The whole cell lysate were then added SDS loading dye, heated at 95 degree C. and run on a 4-15% SDS PAGE gel and analyzed by western blot using an anti-FLAG antibody.

With `C#CCCC1(CCNC(=O)CCOCCOCCOCCC(=O)NCCNC(=O)CCCOc2c3occc3cc3ccc(=O)oc23)N=N1` [SPB-PEG3-AAD], the “crosslinking efficiency based on the DNA signal” value in experiment [1] (MEF2/DNA, FIG. 8C lane 3 (10 μM probe) vs lane 1) is “more than 90%”. Besides, the “formation of covalent MEF2/DNA crosslinked complex” value in experiment [1] is on record as “highly efficient crosslinking”.

For `C#CCCC1(CCNC(=O)CCOCCOCCOCCOCCNC(=O)CCCOc2c3occc3cc3ccc(=O)oc23)N=N1` [SPB-PEG4-AAD, N-(2-(3-(but-3-yn-1-yl)-3H-diazirin-3-yl)ethyl)-1-(4-((7-oxo-7H-furo[3,2-g]chromen-9-yl)oxy)butanamido)-3,6,9,12-tetraoxapentadecan-15-amide], in experiment [2], the “crosslinked FOXP3 complexes in probe and UV treated cells” value is listed as “higher molecular weight species containing FOXP3 were observed”.

Consider `C#CCCC1(CCNC(=O)CCCOc2c3occc3cc3ccc(=O)oc23)N=N1` [SPB-AAD, N-(2-(3-(but-3-yn-1-yl)-3H-diazirin-3-yl)ethyl)-4-((7-oxo-7H-furo[3,2-g]chromen-9-yl)oxy)butanamide], for which, in experiment [1] (MEF2/DNA, FIG. 7 lane 7, UV 365 nm), the “low probe concentration at which a significant amount of crosslinked protein complex was observed” value worked out at 0.125 µM. In addition, the “crosslinking efficiency (percentage of native protein-DNA complex being covalently crosslinked)” value in experiment [1] (MEF2/DNA, FIG. 7 lane 5 (12.5 μM probe) vs lanes 1-3, free DNA FAM signal, UV 365 nm) is given as 80-90%. Besides, the “UV illumination time at which crosslinked complex was visible” value in experiment [1] (MEF2/DNA, probe 100 μM) turned out to be 3 s. The “UV illumination time at which crosslinking reached plateau” value in experiment [1] (MEF2/DNA, probe 100 μM, plateau around 100 seconds and 5 min time points) was “around 100 seconds”. For the same compound, the “formation of covalent MEF2/DNA crosslinked complex” value in experiment [1] is “formation of complexes that run as larger molecular species than both free protein and DNA”. Moreover, the “dependence of crosslinked FOXP3 complex formation on probe concentration” value in experiment [2] (10 μM (lane 4) vs 100 μM (lane 6)) is “dosage dependent on probe concentration”. Further, the “crosslinked FOXP3 complexes in probe and UV treated cells” value in experiment [2] is on record as “higher molecular weight species containing FOXP3 were observed”.
